Data set [1] concerns the target hERG (KCNH2) (Homo sapiens, UniProt Q12809). Description: Displacement of [3H]dofetilide from human ERG stably expressed in HEK293 cell membranes assessed as residual binding level at 10 uM measured after 60 mins by microbeta liquid scintillation counting method relative to control. To be noted: membranes of HEK293 cells stably expressing hERG, probe [3H]dofetilide, read-out: Activity. Also on record: species or system Membrane.

Data set [2] has as its system Stem cell-derived cardiomyocyte. Nature of the data set: Effect on human iPSC-derived cardiomyocytes assessed as shortening of field potential duration by microarray electrode based assay. It is filed as functional, tissue-based.
Data set [3] shares this test system. Nature of the data set: Effect on human iPSC-derived cardiomyocytes assessed as reduction in beating rate by measuring change in RR interval at higher concentration by microarray electrode based assay. It is filed as functional.
Data set [4] shares this test system. Nature of the data set: Effect on human iPSC-derived cardiomyocytes assessed as suppression of dofetilide-induced increase in field potential duration at 10 to 30 uM by microarray electrode based assay. To be noted: dose 10-30 µM. It counts as functional.
The test system is the same in data set [5]. Nature of the data set: Effect on dofetilide-induced reduction in RR interval in human iPSC-derived cardiomyocytes at 10 to 30 uM by microarray electrode based assay. It is filed as functional. To be noted: dose 10-30 µM.
Data set [6] deals with T1, Voltage-gated inwardly rectifying potassium channel KCNH2 (Homo sapiens, UniProt Q12809). Nature of the data set: Negative allosteric modulation of human ERG stably expressed in HEK293 cells assessed as increase in current density at 5 uM with -60 mV holding potential measured after 5 mins by whole cell patch clamp method. To be noted: hek293, 5 min.
T1 sequence (Q12809 whole entry): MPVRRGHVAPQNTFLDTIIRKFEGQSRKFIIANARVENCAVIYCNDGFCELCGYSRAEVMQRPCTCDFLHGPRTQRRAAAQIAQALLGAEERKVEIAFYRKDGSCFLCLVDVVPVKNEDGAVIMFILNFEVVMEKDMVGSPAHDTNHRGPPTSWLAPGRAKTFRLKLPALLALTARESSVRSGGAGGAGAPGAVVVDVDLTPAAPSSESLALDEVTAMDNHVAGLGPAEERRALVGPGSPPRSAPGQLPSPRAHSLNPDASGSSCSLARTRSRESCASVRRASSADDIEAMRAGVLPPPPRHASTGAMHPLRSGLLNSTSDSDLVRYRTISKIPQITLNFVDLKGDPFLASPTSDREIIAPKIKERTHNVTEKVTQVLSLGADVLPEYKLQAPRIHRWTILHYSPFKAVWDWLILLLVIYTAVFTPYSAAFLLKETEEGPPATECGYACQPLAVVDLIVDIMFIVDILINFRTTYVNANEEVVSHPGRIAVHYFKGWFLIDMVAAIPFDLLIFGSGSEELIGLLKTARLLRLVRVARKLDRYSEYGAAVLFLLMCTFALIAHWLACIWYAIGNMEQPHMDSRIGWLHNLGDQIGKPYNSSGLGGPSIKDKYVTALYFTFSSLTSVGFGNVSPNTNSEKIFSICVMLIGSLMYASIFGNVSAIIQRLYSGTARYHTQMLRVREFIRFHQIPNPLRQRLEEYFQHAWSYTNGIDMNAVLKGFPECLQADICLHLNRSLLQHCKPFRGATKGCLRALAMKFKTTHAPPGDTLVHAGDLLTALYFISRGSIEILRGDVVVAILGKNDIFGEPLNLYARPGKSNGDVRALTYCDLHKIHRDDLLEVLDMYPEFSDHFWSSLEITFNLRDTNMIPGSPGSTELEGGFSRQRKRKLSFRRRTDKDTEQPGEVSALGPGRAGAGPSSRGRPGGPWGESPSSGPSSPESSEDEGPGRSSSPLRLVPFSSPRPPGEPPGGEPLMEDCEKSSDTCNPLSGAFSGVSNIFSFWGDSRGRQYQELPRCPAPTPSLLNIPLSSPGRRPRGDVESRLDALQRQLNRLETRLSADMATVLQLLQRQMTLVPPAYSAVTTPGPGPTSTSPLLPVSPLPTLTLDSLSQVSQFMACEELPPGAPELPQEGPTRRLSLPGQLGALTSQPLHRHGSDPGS
For data set [7], the system named is Stem cell-derived cardiomyocyte. Description: Effect on human iPSC-derived cardiomyocytes assessed as prolongation of field potential duration by microarray electrode based assay. It is filed as functional, tissue-based.
Data set [8] has the same test system. Nature of the data set: Effect on human iPSC-derived cardiomyocytes assessed as reduction in beating rate by measuring change in RR interval at 30 uM by microarray electrode based assay. It counts as functional, tissue-based.
In data set [9] the target is T1, Voltage-gated inwardly rectifying potassium channel KCNH2. Nature of the data set: Channel blockade of human ERG stably expressed in HEK293 cells assessed as decrease in current density at 5 uM with -60 mV holding potential measured after 5 mins by whole cell patch clamp method. To be noted: hek293, 5 min. In general terms: The patch-clamp technique gives a direct electrical read-out from membranes.

For data set [10] the target is unchanged. Nature of the data set: Displacement of [3H]dofetilide from human ERG stably expressed in HEK293 cell membranes assessed as unlabelled dofetilide IC50 at 1 uM measured after 60 mins by microbeta liquid scintillation counting method (reference value: 9.1 to 11.7 nM). The arrangement: species or system Membrane. Background: Loss of bound radioactivity is the signal in a displacement assay; it reports binding, not function.

For data set [11] the target is unchanged. Nature of the data set: Displacement of [3H]dofetilide from human ERG stably expressed in HEK293 cell membranes assessed as unlabelled dofetilide IC50 at 10 uM measured after 60 mins by microbeta liquid scintillation counting method (reference value: 9.1 to 11.7 nM). Also on record: species or system Membrane.
The subject of data set [12] is Stem cell-derived cardiomyocyte. Nature of the data set: Effect on human iPSC-derived cardiomyocytes assessed as change in field potential duration by microarray electrode based assay. It is filed as functional.
Data set [13] has the same test system. Description: Effect on human iPSC-derived cardiomyocytes assessed as suppression of dofetilide-induced increase in field potential duration by microarray electrode based assay. It is filed as functional.
For data set [14] the test system is unchanged. Nature of the data set: Effect on dofetilide-induced reduction in RR interval in human iPSC-derived cardiomyocytes by microarray electrode based assay. It is filed as functional.
Data set [15] deals with T1, Voltage-gated inwardly rectifying potassium channel KCNH2. Nature of the data set: Displacement of [3H]dofetilide from human ERG stably expressed in HEK293 cell membranes assessed as unlabelled dofetilide IC50 at 3 uM measured after 60 mins by microbeta liquid scintillation counting method (reference value: 9.1 to 11.7 nM). Also on record: species or system Membrane.

The source of these data is ChEMBL document CHEMBL4732108, “Targeting the K11.1 (hERG) channel with allosteric modulators. Synthesis and biological evaluation of three novel series of LUF7346 derivatives” (Eur J Med Chem, 2021).

The source made the active and inactive calls. The calls are words filed in the database; no cut-off is given here.

Sequence of hERG (KCNH2) (Q12809 whole entry): as above

With `O=C(COc1ccc(C(=O)c2ccccc2Br)cc1)Nc1cccnc1`, in data set [1], the activity at 1 h, 10 µM was found to be 29.8%. Further, the Activity entry in data set [2] is “Dose-dependent effect”; in data set [6], “Active”. The Activity entry in [3] and in data set [4] was “Active” in each case. The Activity entry in [5] was “inactive”.

Take `CC(C)CNC(=O)c1cccc(NC(=O)COc2ccc(C(=O)c3cc(Cl)ccc3Br)cc2)c1`: the activity at 1 h, 10 µM in data set [1] stood at 46%.

In the case of `COc1ccc(NC(=O)COc2ccc(C(=O)c3cc(Cl)ccc3Br)cc2)cc1C#N`, in [1], the activity at 1 h, 10 µM amounted to 60%.

Consider `O=C(COc1ccc(C(=O)c2cc(Cl)ccc2Br)cc1)Nc1cccc(C(=O)NC2CC2)c1`, for which the activity at 1 h, 10 µM in [1] turned out to be 27%.

As for `O=C(COc1ccc(C(=O)c2cc(Cl)ccc2Br)cc1)Nc1cncc(C(=O)NCC2CC2)c1`, the activity at 1 h, 10 µM in data set [1] worked out at 2%. In addition, the Activity entry in data set [7], in data set [3] and in data set [8] was “Active” in each case. In addition, in data set [9], the Activity entry is on record as “Active”. As to `O=C(COc1ccc(C(=O)c2cc(Cl)ccc2Br)cc1)Nc1cccnc1`, the activity at 1 h, 10 µM in [1] is 28.2%. With `COc1ccc(C#N)cc1NC(=O)COc1ccc(C(=O)c2cc(Cl)ccc2Br)cc1`, in [1], the activity at 1 h, 10 µM is 28%. With `N#Cc1ccc(Cl)c(NC(=O)COc2ccc(C(=O)c3cc(Cl)ccc3Br)cc2)c1`, the activity at 1 h, 10 µM in data set [1] came to 44%. For `O=C(COc1ccc(C(=O)c2cc(Cl)ccc2Br)cc1)Nc1ccc(Cl)c(C(=O)NCC2CC2)c1`, the activity at 1 h, 10 µM in data set [1] came out at 20%. By IC50 is commonly meant the point on the concentration scale where inhibition reaches its midpoint. Consider `N#Cc1cccc(NC(=O)COc2ccc(C(=O)c3cc(Cl)ccc3Br)cc2)c1`, for which, in data set [1], the activity at 1 h, 10 µM amounted to 20%. Further, the IC50 in data set [10] was determined as 28.3 nM. Take `O=C(COc1ccc(C(=O)c2cc(Cl)ccc2Br)cc1)Nc1cccc(C(=O)NCC2CC2)c1Cl`: the activity at 1 h, 10 µM in data set [1] was -2%. Turning to `O=C(COc1ccc(C(=O)c2cc(Cl)ccc2Br)cc1)Nc1ccncc1`, the activity at 1 h, 10 µM in [1] came to 26.1%. Further, in data set [11], the IC50 is 43.7 nM. `N#Cc1cncc(NC(=O)COc2ccc(C(=O)c3cc(Cl)ccc3Br)cc2)c1`: the Activity entry in data set [12], in data set [13] and in data set [14] was “inactive” in each case. Moreover, in data set [3], the Activity result was “Active”. Turning to `O=C(COc1ccc(C(=O)c2cc(Cl)ccc2Br)cc1)Nc1cccc(C(=O)NCC2CCC2)c1`, in data set [1], the activity at 1 h, 10 µM stood at 38%. The same measure, in the same setting: as for `COc1cc(NC(=O)COc2ccc(C(=O)c3cc(Cl)ccc3Br)cc2)ccn1`, the figure is 90%. As for `Cc1cnccc1NC(=O)COc1ccc(C(=O)c2cc(Cl)ccc2Br)cc1`, in [1], the activity at 1 h, 10 µM is 15%. Further, in data set [15], the IC50 is given as 14.1 nM. As to `N#Cc1cc(NC(=O)COc2ccc(C(=O)c3cc(Cl)ccc3Br)cc2)ccc1F`, the activity at 1 h, 10 µM in data set [1] was found to be 22.7%. Still for that read-out and setting: as for `O=C(COc1ccc(C(=O)c2cc(Cl)ccc2Br)cc1)Nc1cc(Cl)cc(C(=O)NCC2CC2)c1`, the figure is 36%.

`CNC(=O)c1cccc(NC(=O)COc2ccc(C(=O)c3cc(Cl)ccc3Br)cc2)c1`: the activity at 1 h, 10 µM in data set [1] amounted to 39.8%. Take `Cc1cc(NC(=O)COc2ccc(C(=O)c3cc(Cl)ccc3Br)cc2)ccn1`: the activity at 1 h, 10 µM in data set [1] came to 9%. For the same molecule, in [7], the Activity entry was “Active”. The Activity entry in data set [3], in data set [13] and in [14] was “inactive” in each case. Besides, the Activity entry in data set [9] was “Active”. In the case of `N#Cc1cc(Cl)cc(NC(=O)COc2ccc(C(=O)c3cc(Cl)ccc3Br)cc2)c1`, the activity at 1 h, 10 µM in data set [1] stood at 36%.

As to `O=C(COc1ccc(C(=O)c2cc(Cl)ccc2Br)cc1)Nc1ccnc(Cl)c1`, the activity at 1 h, 10 µM in data set [1] was 52%. Still for that read-out and setting: under `O=C(COc1ccc(C(=O)c2cc(Cl)ccc2Br)cc1)Nc1cccc(C(=O)NCC2CC2)c1` stands 36.6%; under `O=C(COc1ccc(C(=O)c2cc(Cl)ccc2Br)cc1)Nc1ccnc(C(=O)NCC2CC2)c1`, 53%. Same read-out and setting: under `O=C(COc1ccc(C(=O)c2cc(Cl)ccc2Br)cc1)Nc1ccnc(F)c1` stands 56.1%. Still for that read-out and setting: under `N#Cc1cccc(NC(=O)COc2ccc(C(=O)c3cc(Cl)ccc3Br)cc2)c1F` stands 21%; under `N#Cc1cc(NC(=O)COc2ccc(C(=O)c3cc(Cl)ccc3Br)cc2)ccc1Cl`, 86%. As to `O=C(COc1ccc(C(=O)c2cc(Cl)ccc2Br)cc1)Nc1cc(C(=O)NCC2CC2)ccc1Cl`, the activity at 1 h, 10 µM in data set [1] was found to be 89%. On the same count and under the same terms, under `Cc1ccc(NC(=O)COc2ccc(C(=O)c3cc(Cl)ccc3Br)cc2)cc1C#N` stands 87%.
